Data as given in patent US8822435B2, “Bisphosphonate compounds” (Warner Chilcott Company, LLC, priority 2009, dated 2014).
Values joined by “and” are separate entries in the source; they are usually repeats but may differ in a detail not shown here. Equal entries are not always repeated.

Experiments:
[1] = Urinary recovery of cyclic acetal and conversion to bisphosphonate after IV administration to rats; type: in vivo, rat; conditions: for dosed cyclic acetal converted to risedronate: male, Sprague-Dawley
Protocol: (§1) Male, Sprague-Dawley, rats weighing approximately 200-400 g were studied.
(§2) All formulations were prepared within approximately 1 hour of dosing.
Generally, animals were administered a 1.7 micromole/kg, 2 ml/kg IV dose (tail vein) of the appropriate formulation using a syringe and attached butterfly needle. All animals remained fasted for an additional 4 hours post dose and were returned to ad libitum access to food thereafter.
(§3) Urine samples were collected into refrigerated plastic conical tubes at approximately 4, 8 and 24 hours post-dose. At the end of each collection period, samples were weighed and transferred to a −70° C. freezer for storage until analyzed.
The absorbed risedronate is stable in vivo and is not metabolized. After IV administration of risedronate to rats, about 60% of risedronate binds to bone and about 40% of risedronate dosed is excreted in urine. When risedronate cyclic acetal compounds are administered intravenously to rats, a percentage of the cyclic acetal can remain intact and can be excreted in urine while a percentage of the cyclic acetal can be converted to risedronate in vivo. Assuming risedronate formed in vivo has the similar tissue distribution profile as described above, about 40% of risedronate generated in vivo will be excreted in urine and about 60% of risedronate generated in vivo will bind to bone. Thus, the percentage of the cyclic acetal which is converted to risedronate in vivo is estimated using Formula A: […]
Risedronate cyclic acetal compounds were administered intravenously in saline (0.9% sodium chloride).

[2] = Urinary recovery / risedronate exposure after intraduodenal (ID) and oral (PO) administration to fasted and fed rats; type: in vivo, rat; conditions: for Amount Excreted: Risedronate (risedronate administered): dose 17 micromole/kg, rats
Protocol: as §1, §2
The appropriate test article formulation was administered to each animal as a 17 micromole/kg, 2 mL/kg dose solution in 0.6% methylcellulose/0.2% Tween 80® by oral gavage. Alternatively, animals were dosed with a 17 micromole/kg, 1 mL/kg dose solution in saline through a cannula into the duodenum. Animals in the fasted groups were fasted for approximately 4 hours after dosing and were returned to ad libitum access to food thereafter. Animals in the fed groups had access to food ad libitum for at least 2 hours prior to dosing, and throughout the day post dose.
as §3
Example 62 (trans) and risedronate were administered via intraduodenal (ID) and oral administration to fasted and fed rats. Similar to the procedure described above in relation to the IV study, the urine of the rats was collected, and risedronate was recovered from urine. Risedronate exposure following ID and oral administration was calculated as percentage of the recovered risedronate from the dosed cyclic acetal (Formula A), and the results were compared to that from dosing with risedronate, See Table 4.

[3] = test system: Sprague Dawley rats (Schenk Model); assay: Schenk Model: bone mineral density of proximal tibial metaphysis by DXA; type: in vivo, rat; conditions: for D20, 20% > BMD than control / LED (lowest effective dose): SQ once daily for 7 days, rats; for D20, 20% > BMD than control: logistic dose response relationship; for LED (lowest effective dose): significant anti-resorptive dose vs control; for bone density in the rat proximal tibial metaphysis: Schenk Model
Protocol: The effect of the compounds (Example 62 (trans) and Example 128) on in vivo bone resorption inhibition and mineralization inhibition was evaluated in the Schenk Model, an animal model system known in the field of bone metabolism. The general principles of this model are disclosed in Shinoda et al., Calcif. Tissue Int., 35: 87-99 (1983); and in Schenk et al., Calcif: Tissue Res. 11: 196-214 (1973).
Male Sprague Dawley rats approximately 6 weeks old with weights ranging between 120 and 150 grams were placed into groups based on body weight, with 4-8 animals per group. All groups received treatment by subcutaneous injection (SQ) once daily for 7 days.
On day 7 after the start of dosing, all animals were euthanized via exsanguination under gas anesthesia and/or CO2. The right tibia and femur were dissected free and placed in 70% ethyl alcohol.
The proximal metaphysis of the right tibia was analyzed using dual energy x-ray absorptiometry (DXA). This provides information on changes in both cortical and cancellous bone density. The primary end-point for this study was bone mineral density (BMD) in the tibia measured using Hologics QDR-4500 densitometer (Hologics, Inc). Statistical evaluation of data was made using parametric and non-parametric analysis of variance and Fisher's protected t-test to determine a statistically significant effect compared to control animals, defined as the lowest effective (significant anti-resorptive) dose (LED).
The dose which increased (BMD) 20% compared to the vehicle group (D20) was calculated via a logistic dose response relationship, which estimates an efficacy value using all animals in the study (Lundy et al., J. Bone Min. Res. 22 (Suppl. 1): S443, (2007)).

[4] = Solubility in water (remark in synthesis example); type: physicochemical; conditions: calcium salt
[5] = IV, dose 1.7 micromole/kg, rats, % CV in parentheses
[6] = after IV administration of risedronate to rats

**Q.** Which “urinary recovery of the cyclic acetal” value ([1]; rat, in vivo, iv) does the source give for `CC(C)=CC(=O)Oc1ccc(C2OP(=O)(O)C(O)(Cc3cccnc3)P(=O)(O)O2)cc1F` (centres unmarked) [Example 47] here?
**A.** very low

**Q.** With `CCCC(=O)Oc1ccc(C2OP(=O)(O)C(O)(Cc3cccnc3)P(=O)(O)O2)cc1F` (centres unmarked) [Example 30] as the molecule, how does the “urinary recovery of the cyclic acetal” value ([1]; rat, in vivo, iv) read?
**A.** very low

**Q.** With `CC1(C)CN(C(=O)Oc2cc(F)c(C3OP(=O)(O)C(O)(Cc4cccnc4)P(=O)(O)O3)c(F)c2)C(=O)O1` (centres unmarked) [Example 83] as the molecule, how does the “urinary recovery of the cyclic acetal” value ([1]; rat, in vivo, iv) read?
**A.** very low

**Q.** Which “urinary recovery of the cyclic acetal” value ([1]; rat, in vivo, iv) does the source give for `CC(=O)Oc1ccc(C2OP(=O)(O)C(O)(Cc3cccnc3)P(=O)(O)O2)cc1` (centres unmarked) [Example 28] here?
**A.** very low

**Q.** With `COC(=O)Oc1ccccc1C1OP(=O)(O)C(O)(Cc2cccnc2)P(=O)(O)O1` (stereo not drawn) [Example 50 (trans)] as the molecule, how does the “systemic exposure of cyclic acetal and risedronate” value ([1]; rat, in vivo, iv) read?
**A.** both systemic exposure of the cyclic acetal and risedronate

**Q.** For `O=P(O)(O)C(O)(Cc1cccnc1)P(=O)(O)O` [Risedronate, risedronate, reference compound], which “Amount Excreted: Risedronate (risedronate administered)” value (“Amount Excreted: Risedronate” for short) [1, 5] is on record?
**A.** 36 (13) % of administered dose excreted in urine and 39 % of administered dose excreted in urine

**Q.** What about the “risedronate binds to bone” value [1, 6] of the same molecule?
**A.** about 60%

**Q.** And the “risedronate dosed excreted in urine” value [1, 6]?
**A.** about 40%

**Q.** And the “Amount Excreted: Risedronate” value ([2]; ID fed, % CV in parentheses)?
**A.** 0.012 (50) % of administered dose excreted in urine

**Q.** And the “Amount Excreted: Risedronate” value ([2]; Oral fast)?
**A.** 0.13 % of administered dose excreted in urine

**Q.** And the “Amount Excreted: Risedronate” value ([2]; Oral fed)?
**A.** 0.003 % of administered dose excreted in urine

**Q.** And the “risedronate exposure with food compared to fasted rats” value ([2]; fed rats)?
**A.** extensive reduction

**Q.** And the “risedronate exposure as estimated by urinary recovery” value ([2]; orally to fasted rats)?
**A.** less than 1 % of dose

**Q.** And the “D20, 20% > BMD than control” value [3]?
**A.** 1.8 mcg P/kg

**Q.** And the “LED (lowest effective dose)” value [3]?
**A.** 1 mcg P/kg

**Q.** For `CC(C)OC(=O)Oc1ccccc1C1OP(=O)(O)C(O)(Cn2ccnc2)P(=O)(O)O1` (centres unmarked) [Example 128, Carbonic acid isopropyl ester 2-(2,3,4-trihydroxy-3-imidazol-1-ylmethyl-2,4-dioxo-2λ^5,4λ^5-[1,5,2,4]dioxadiphosphinan-6-yl)-phenyl ester], which “D20, 20% > BMD than control” value [3] is on record?
**A.** 0.5 mcg P/kg

**Q.** What about the “LED (lowest effective dose)” value [3] of the same molecule?
**A.** 1 mcg P/kg

**Q.** And the “bone density in the rat proximal tibial metaphysis” value [3]?
**A.** efficacious

**Q.** Which “Amount of Cyclic Acetal Excreted” value [1, 5] does the source give for `O=C(Cc1ccccc1)Oc1ccc(C2OP(=O)(O)C(O)(Cc3cccnc3)P(=O)(O)O2)cc1` (stereo not drawn) [Example 79 (trans)] here?
**A.** 0.3 (220) % of administered dose excreted in urine

**Q.** For `CCCC(=O)Oc1ccccc1C1OP(=O)(O)C(O)(Cc2cccnc2)P(=O)(O)O1` (centres unmarked) [Example 105], which “urinary recovery of the cyclic acetal” value ([1]; rat, in vivo, iv) is on record?
**A.** very low

**Q.** With `O=C(Cc1ccccc1)Oc1ccc(C2OP(=O)(O)C(O)(Cc3cccnc3)P(=O)(O)O2)cc1` (centres unmarked) [Example 79] as the molecule, how does the “urinary recovery of the cyclic acetal” value ([1]; IV, rats, rapid rate of conversion to risedronate in vivo) read?
**A.** very low

**Q.** With `O=C(Oc1c(F)cccc1C1OP(=O)(O)C(O)(Cc2cccnc2)P(=O)(O)O1)N1CCOCC1` (centres unmarked) [Example 53] as the molecule, how does the solubility in water [4] read?
**A.** very low

**Q.** For `O=C1OCCN1C(=O)Oc1ccccc1C1OP(=O)(O)C(O)(Cc2cccnc2)P(=O)(O)O1` (centres unmarked) [Example 82], which “dosed cyclic acetal converted to risedronate” value ([1]; rat, in vivo, iv) is on record?
**A.** 43%

**Q.** Which “urinary recovery of the cyclic acetal” value ([1]; rat, in vivo, iv) does the source give for `CC(C)C(=O)Oc1ccc(C2OP(=O)(O)C(O)(Cc3cccnc3)P(=O)(O)O2)cc1` (stereo not drawn) [Example 33 (trans)] here?
**A.** very low

**Q.** With `CC(C)OC(=O)Oc1ccc(C2OP(=O)(O)C(O)(Cc3cccnc3)P(=O)(O)O2)c(F)c1` (centres unmarked) [Example 63] as the molecule, how does the “urinary recovery of the cyclic acetal” value ([1]; rat, in vivo, iv) read?
**A.** very low

**Q.** Which results are given for `CC(C)OC(=O)Oc1ccccc1C1OP(=O)(O)C(O)(Cc2cccnc2)P(=O)(O)O1` (stereo not drawn) [Example 62 (trans)]?
**A.** risedronate release rate into the bloodstream vs risedronate ([1]; rat, in vivo, iv): slower; systemic exposure of cyclic acetal and risedronate ([1]; rat, in vivo, iv): both systemic exposure of the cyclic acetal and risedronate; D20, 20% > BMD than control [3]: 5 mcg P/kg; LED (lowest effective dose) [3]: 3 mcg P/kg; bone density in the rat proximal tibial metaphysis [3]: efficacious

**Q.** For `CCOC(=O)Oc1ccc(C2OP(=O)(O)C(O)(Cc3cccnc3)P(=O)(O)O2)cc1` (centres unmarked) [Example 36], which “systemic exposure of cyclic acetal and risedronate” value ([1]; rat, in vivo, iv) is on record?
**A.** both systemic exposure of the cyclic acetal and risedronate

**Q.** With `CCCC(=O)Oc1ccc(C2OP(=O)(O)C(O)(Cc3cccnc3)P(=O)(O)O2)cc1` (centres unmarked) [Example 29] as the molecule, how does the “dosed cyclic acetal converted to risedronate” value ([1]; rat, in vivo, iv) read?
**A.** > 100%

**Q.** What about the “urinary recovery of the cyclic acetal” value ([1]; rat, in vivo, iv) of the same molecule?
**A.** very low

**Q.** What does the source list for `O=P(O)(O)C(O)(Cn1ccnc1)P(=O)(O)O` [Zoledronic acid, (1-hydroxy-2-imidazol-1-yl)-ethyl-1,1-bisphosphonic acid, reference compound]?
**A.** D20, 20% > BMD than control [3]: 0.1 mcg P/kg; LED (lowest effective dose) [3]: 0.1 mcg P/kg
